The values below come from patent US5977169A, “Substituted tetronic acids useful for treating HIV and other retroviruses” (priority 1997, dated 1999).

This assay concerns the target T1, HIV-1 protease (Human immunodeficiency virus type 1 group M subtype B, UniProt P04585).
T1 construct: The protease (or proteinase) enzyme, consisting of only 99 amino acids
The assay can be described thus: In vitro HIV protease inhibitory assay (fluorescently labeled substrate, avidin-polystyrene particles). The assay is classed as biochemical. To be noted: for inhibition at 3.3 µM: HIV-1 dose 3.3 μM; for inhibition at 10 µM: HIV-1 dose 10.0 μM; for inhibition at 30 µM: HIV-1 dose 30.0 μM. As for the experimental part:
The HIV protease screening assay is based on a fluorescently labeled substrate which can be resolved from nonlabeled cleavage product using avidin-polystyrene particles, 0.7-0.9 μm. The substrate is biotinylated at the amino terminal arginine and fluorescently labeled with fluorescein isothiocynate (FITC) at the carboxyl terminal lysine. This assay has been employed to detect novel, nonpeptidic inhibitors of HIV-1 protease. Substrate (20 μl of 0.2 μM), sample (10 μl of desired concentraion), and enzyme (10 μl of 0.1 μM) are added to a 96 well pandex plate. The assay is run in 0.1 M sodium acetate buffer at pH 5.5 in the presence of 1.0 M sodium chloride and 0.05% NP-40 and incubated in the dark for one hour at room temperature. Avidin coated polystyrene beads (40 μl of 0.1% (w/v)) are added and the incubation is continued in the dark for an additional half hour. The labeled cleavage product is separated from the unreacted substrate via filtration and is read on the IDEXX Screen Machine. (IDEXX Corporation--Portland, Me.) The data are analyzed by appropriate computer algorithms to ascertain percent inhibition values.
The Activity Table showing the results of the HIV Protease Inhibitory Assay appears below in TABLE 1. The table has three columns, the left column provides the code number of the compound for easy cross reference to structure tables and detailed procedures, the middle column provides the concentration of test compound and the column on the right provides the percent inhibition.

Setting [1] is: test compound concentration 3.3 μM.
The mark [2] stands for this setting: test compound concentration 10.0 μM.
[3] abbreviates: test compound concentration 30.0 μM.

Structures can show the parent of a compound that is named as a salt.

For the compound `CCCC1(CCC)OC(=O)C(C(c2cccc([N+](=O)[O-])c2)C2CC2)=C1O` (stereo not drawn) [IX-1, 2(5H)-Furanone, 3-(cyclopropyl(3-nitrophenyl)methyl)-4-hydroxy-5,5-dipropyl-], the inhibition at 3.3 µM turned out to be 108%, the inhibition at 10 µM stood at 121% and the inhibition at 30 µM is 122%.

In the case of `CCCC1(CCC)OC(=O)C(C(CC)c2cccc([N+](=O)[O-])c2)=C1O` (stereo not drawn) [IX-2, 2(5H)-Furanone, 4-hydroxy-3-(1-(3-nitrophenyl)propyl)-5,5-dipropyl-], the inhibition at 3.3 µM worked out at 102%, the inhibition at 10 µM is 113% and the inhibition at 30 µM was found to be 102%.

As to `O=C1OC2(CCCCC2)C(O)=C1C(c1ccccc1)C1CC1` (stereo not drawn) [IX-3, 1-Oxaspiro[4.5]dec-3-en-2-one, 3-(cyclopropyl-phenylmethyl)-4-hydroxy-], the inhibition at 3.3 µM was 102%, the inhibition at 10 µM was found to be 114% and the inhibition at 30 µM turned out to be 103%.

As for `O=C1OC2(CCCCC2CCc2ccccc2)C(O)=C1C(c1ccccc1)C1CC1` (stereo not drawn) [IX-4, 1 -Oxaspiro[4.5]dec-3-en-2-one, 3-(cyclo-propylphenylmethyl)-5-hydroxy--6-(2-phenylethyl)-], the inhibition at 10 µM was 78.1% and the inhibition at 30 µM amounted to 86%. Moreover, the “HIV-1 Protease % Inhibition” value under setting [1] amounted to 56.89%.

For the compound `O=C1OC2(CCCCC2CCc2ccccc2)C(O)=C1C(c1ccccc1)C1CC1` (stereo not drawn) [IX-5, 1-Oxaspiro[4.5]dec-3-en-2-one, 3-(cyclo-propylphenylmethyl)-4-hydroxy--6-(2-phenylethyl)-], the “HIV-1 Protease % Inhibition” value by setting is: under setting [1], 91.93%; under setting [2], 95.68%; under setting [3], 92.9%.

With `O=C1OC2(CCCCC2Cc2ccccc2)C(O)=C1C(c1ccccc1)C1CC1` (stereo not drawn) [IX-6, 1-Oxaspiro[4.5]dec-3-en-2-one, 3-(cyclo-propylphenylmethyl)-4-hydroxy--6-(2-phenylmethyl)-], the inhibition at 3.3 µM worked out at 101%, the inhibition at 10 µM was found to be 104% and the inhibition at 30 µM came to 105%.

For the compound `O=C1OC2(CCCCC2Cc2ccccc2)C(O)=C1C(c1ccccc1)C1CC1` (stereo not drawn) [IX-7, 1-Oxaspiro[4.5]dec-3-en-2-one, 3-(cyclo-propylphenylmethyl)4-hydroxy-6--(2-phenylmethyl)-], the “HIV-1 Protease % Inhibition” value by setting is: under setting [1], 102.85%; under setting [2], 99.7%; under setting [3], 95.76%.

`O=C1OC2(CCCCCC2)C(O)=C1C(c1ccccc1)C1CC1` (stereo not drawn) [IX-8, 1-Oxaspiro[4.6]undec-3-en-2-one, 3-(cyclo-propylphenylmethyl)-4-hydroxy-]: the inhibition at 3.3 µM stood at 104%, the inhibition at 10 µM was 108% and the inhibition at 30 µM was 104%.

`CCC1(Cc2ccccc2)OC(=O)C(C(c2ccccc2)C(C)C)=C1O` (stereo not drawn) [IX-9, 2(5H)-Furanone, 5-ethyl-4-hydroxy-3-(2-methy1-1-phenylpropyl)-5-(phenyl-methyl)-]: the inhibition at 3.3 µM was found to be 103%, the inhibition at 10 µM is 109% and the inhibition at 30 µM was 108%.

As to `CCC(C1=C(O)C(CC)(Cc2ccccc2)OC1=O)c1ccccc1` (stereo not drawn) [IX-10, 2(5H)-Furanone, 5-ethyl-4-hydroxy-5-(phenyl-methyl)-3-(1-phenylpropyl)-], the inhibition at 3.3 µM is 97.3%, the inhibition at 10 µM is 105% and the inhibition at 30 µM was determined as 101%.

On to `CCCC1(CCC)OC(=O)C(C(c2cccc(N)c2)C2CC2)=C1O` (stereo not drawn) [IX-11, 2(5H)-Furanone, 3-((3-aminophenyl)cyclopropylmethyl)-4-hydroxy-5,5-dipropyl-], for which the inhibition at 3.3 µM came to 108%, the inhibition at 10 µM was determined as 108% and the inhibition at 30 µM is 114%.

On to `CCCC1(CCC)OC(=O)C(C(c2cccc(N)c2)C2CC2)=C1O` (stereo not drawn) [IX-12, 2(5H)-Furanone, 3-((3-aminophenyl)cyclopropylmethyl)-4-hydroxy-5,5-dipropyl-hydrochloride], for which the “HIV-1 Protease % Inhibition” value under setting [1] is recorded as 117.79%, the “HIV-1 Protease % Inhibition” value under setting [2] is 119.69% and the “HIV-1 Protease % Inhibition” value under setting [3] is 120.48%.

With `CCCC1(CCC)OC(=O)C(C(CC)c2cccc(N)c2)=C1O` (stereo not drawn) [IX-13, 2(5H)-Furanone, 3-(1-(3-aminophenyl)propyl)-4-hydroxy-4-hydroxy-5,5-dipropyl-], the inhibition at 3.3 µM is 59.9%, the inhibition at 10 µM turned out to be 86.5% and the inhibition at 30 µM was 89.4%.

As to `CCCC1(CCC)OC(=O)C(C(c2cccc(NS(=O)(=O)c3ccccc3)c2)C2CC2)=C1O` (stereo not drawn) [IX-15, Benzenesulfonamide, N-(3-(cyclopropyl(1,5-dihydro-4-hydroxy-2-oxo-5,5-dipropyl-3-furanyl)methyl)phenyl)-], the inhibition at 0.12 µM (HIV-1 dose 0.12 μM) worked out at 94%. Further, the inhibition at 0.37 µM (HIV-1 dose 0.37 μM) turned out to be 102%. In addition, the inhibition at 1.1 µM (HIV-1 dose 1.1 μM) worked out at 104%.

As for `CCCC1(CCC)OC(=O)C(C(c2cccc(NS(=O)(=O)c3ccc(F)cc3)c2)C2CC2)=C1O` (stereo not drawn) [IX-16], the inhibition at 3.3 µM is 108%, the inhibition at 10 µM is 109% and the inhibition at 30 µM turned out to be 106%.

As to `CCCC1(CCC)OC(=O)C(C(c2cccc(NS(=O)(=O)c3cccc4cccnc34)c2)C2CC2)=C1O` (stereo not drawn) [IX-18], the inhibition at 3.3 µM is 102%, the inhibition at 10 µM worked out at 125% and the inhibition at 30 µM was 106%.

Consider `CCCC1(CCC)OC(=O)C(C(c2cccc(NS(=O)(=O)c3cccc4ccccc34)c2)C2CC2)=C1O` (stereo not drawn) [IX-19], for which the inhibition at 3.3 µM is 103%, the inhibition at 10 µM came out at 126% and the inhibition at 30 µM amounted to 105%.

Turning to `CCCC1(CCC)OC(=O)C(C(CC)c2cccc(NS(=O)(=O)c3ccccc3)c2)=C1O` (stereo not drawn) [IX-20, Benzenesulfonamide, N-(3-(1-(2,5-dihydro-4-hydroxy-2-oxo--5,5-dipropyl-3-furanyl)propyl)phenyl)-], the inhibition at 3.3 µM was found to be 104%, the inhibition at 10 µM was found to be 101% and the inhibition at 30 µM came out at 91.8%.

Regarding `CCCC1(CCC)OC(=O)C(C(CC(C)C)c2cccc(NS(=O)(=O)c3ccc(C#N)cc3)c2)=C1O` (stereo not drawn) [IX-21, Benzenesulfonamide, 4-Cyano-N-(3-(1-(4-hydroxy-2-oxo-5,5-dipropyl-2,5-dihydro-furan-3-yl)-3-methyl-butyl)-phenyl)-], the inhibition at 3.3 µM amounted to 95.7%, the inhibition at 10 µM stood at 101% and the inhibition at 30 µM was 96.1%.

For the compound `CCCC1(CCC)OC(=O)C(C(CC(C)C)c2cccc(NS(=O)(=O)c3cn(C)cn3)c2)=C1O` (stereo not drawn) [IX-22], the inhibition at 3.3 µM was 94.3%, the inhibition at 10 µM stood at 96.3% and the inhibition at 30 µM is 94.5%.

In the case of `CCCC1(CCC)OC(=O)C(C(c2cccc(NS(=O)(=O)c3ccc(C#N)cc3)c2)C(C)C)=C1O` (stereo not drawn) [IX-23, Benzenesulfonamide, 4-Cyano-N-(3-(1-(4-hydroxy-2-oxo-5,5-dipropyl-2,5-dihydro-furan-3-yl)-2-methyl-propyl)-phenyl)-], the inhibition at 3.3 µM amounted to 109%, the inhibition at 10 µM amounted to 101% and the inhibition at 30 µM was 112%.

For `CCCC1(CCC)OC(=O)C(C(c2cccc(NS(=O)(=O)c3ccc(C#N)cc3)c2)C(C)(C)C)=C1O` (stereo not drawn) [IX-25, Benzenesulfonamide, 4-Cyano-N-(3-(1-(4-hydroxy-2-oxo-5,5-dipropyl-2,5-dihydro-furan-3-yl)-2,2-dimethyl-propyl)-phenyl)-], the inhibition at 3.3 µM was determined as 120%, the inhibition at 10 µM amounted to 120% and the inhibition at 30 µM was found to be 117%.

As for `CCCC1(CCC)OC(=O)C(C(c2cccc(NS(=O)(=O)c3cn(C)cn3)c2)C(C)(C)C)=C1O` (stereo not drawn) [IX-26, 1H-Imidazole-4-sulfonamide, N-(3-(1-(4-hydroxy-2-oxo-5,5-dipropyl-2,5-dihydro-furan-3-yl)-2,2-dimethyl-propyl)-phenyl)-1-methyl-], the inhibition at 3.3 µM stood at 110%, the inhibition at 10 µM is 116% and the inhibition at 30 µM turned out to be 105%.

For the compound `CCCC1(Cc2ccccc2)OC(=O)C(C(c2cccc(NS(=O)(=O)c3ccccc3)c2)C(C)C)=C1O` (stereo not drawn) [IX-27, Benzenesulfonamide, N-(3-(1-(2,5-dihydro-4-hydroxy-2-oxo-5--(phenylmethyl)-5-propyl-3-furanyl)-2-methylpropyl)phenyl)-], the inhibition at 3.3 µM amounted to 105%, the inhibition at 10 µM amounted to 117% and the inhibition at 30 µM worked out at 106%.

With `CCCC1(Cc2ccccc2)OC(=O)C(C(c2cccc(NS(=O)(=O)c3ccc(C#N)cc3)c2)C(C)C)=C1O` (stereo not drawn) [IX-28], the inhibition at 3.3 µM is 123%, the inhibition at 10 µM turned out to be 118% and the inhibition at 30 µM was 125%.

As to `CCCC1(Cc2ccccc2)OC(=O)C(C(c2cccc(NS(=O)(=O)c3ccc(F)cc3)c2)C(C)C)=C1O` (stereo not drawn) [IX-29, Benzenesulfonamide, N-(3-(1-(2,5-dihydro-4-hydroxy-2-oxo-5-(phenylmethyl)-5-propyl-3-furanyl)-2-methylpropyl)phenyl)-4-fluoro-], the inhibition at 3.3 µM stood at 94.9%, the inhibition at 10 µM amounted to 102% and the inhibition at 30 µM was found to be 93.3%.

In general, inhibition refers to the relative decrease from the control value, in per cent.
